From the CheMixHub ionic liquid set

Assay: xn = mol fraction of the nth substance listed

CCCC[n+]1ccn(C)c1.[Br-] + Cc1ncc(CO)c(CO)c1O.Cl + O
viscosity [mPa·s], 100 kPa
Conditions | 293.15 K | 298.15 K | 303.15 K | 308.15 K | 313.15 K
x2 = 0, x1 = 0.0009002 | 1.033 | 0.918 | 0.823 | 0.753 | 0.676
x2 = 0, x1 = 0.001799 | 1.057 | 0.938 | 0.841 | 0.757 | 0.689
x2 = 0, x1 = 0.002696 | 1.068 | 1.001 | 0.904 | 0.796 | 0.748
x2 = 0.0002693, x1 = 0.0008999 | 1.037 | 0.922 | 0.827 | 0.757 | 0.68
x2 = 0.0002812, x1 = 0.001798 | 1.062 | 0.943 | 0.846 | 0.762 | 0.694
x2 = 0.0002821, x1 = 0.002695 | 1.073 | 1.006 | 0.909 | 0.801 | 0.753
x2 = 0.0004585, x1 = 0.0008998 | 1.041 | 0.926 | 0.831 | 0.761 | 0.684
x2 = 0.0005547, x1 = 0.002694 | 1.078 | 1.011 | 0.914 | 0.806 | 0.758
x2 = 0.0005732, x1 = 0.001798 | 1.067 | 0.948 | 0.851 | 0.767 | 0.699
x2 = 0.0008147, x1 = 0.0008995 | 1.047 | 0.932 | 0.837 | 0.768 | 0.691
x2 = 0.0008302, x1 = 0.001797 | 1.072 | 0.953 | 0.856 | 0.772 | 0.704
x2 = 0.0008383, x1 = 0.002693 | 1.083 | 1.016 | 0.919 | 0.811 | 0.763
x2 = 0.001093, x1 = 0.0008992 | 1.052 | 0.937 | 0.842 | 0.774 | 0.696
x2 = 0.001142, x1 = 0.001797 | 1.078 | 0.959 | 0.861 | 0.777 | 0.709
x2 = 0.001151, x1 = 0.002693 | 1.089 | 1.022 | 0.925 | 0.816 | 0.768
x2 = 0.00136, x1 = 0.000899 | 1.058 | 0.943 | 0.848 | 0.78 | 0.703
x2 = 0.001373, x1 = 0.001796 | 1.082 | 0.963 | 0.865 | 0.781 | 0.713
x2 = 0.001399, x1 = 0.002692 | 1.094 | 1.027 | 0.929 | 0.82 | 0.772
x2 = 0.001637, x1 = 0.0008987 | 1.063 | 0.948 | 0.854 | 0.785 | 0.708
x2 = 0.001664, x1 = 0.002691 | 1.098 | 1.032 | 0.933 | 0.825 | 0.777
x2 = 0.001674, x1 = 0.001796 | 1.087 | 0.968 | 0.87 | 0.786 | 0.718

CS(C)=O + Cn1cc[n+](CCCN)c1.F[B-](F)(F)F
Conditions | viscosity [mPa·s]
328.15 K, 101 kPa, x2 = 0 | 1.249

CCCC[N+]1(C)CCCC1.FC(F)(F)C(F)(F)[P-](F)(F)(F)(C(F)(F)C(F)(F)F)C(F)(F)C(F)(F)F + FC(F)(F)c1ccccc1
101 kPa, x1 = 1
Conditions | electrical conductivity [S/m] | viscosity [mPa·s]
298.1 K | 0.113 | 283
303 K | 0.146 | 214
308.1 K | 0.186 | 166.2
313 K | 0.23 | 122.1
318.1 K | 0.273 | 100.3
323 K | 0.332 | 80.1

CCCC[n+]1ccn(C)c1.[Br-] + NC(N)=NCCC[C@H](N)C(=O)O + O
Conditions | viscosity [mPa·s]
313.15 K, 101.3 kPa, x2 = 0, x1 = 0.0007203 | 0.674

CCCC[n+]1ccn(C)c1.[Br-] + NC(N)=O + O
298.15 K, 100 kPa
Conditions | viscosity [mPa·s]
x2 = 0, x3 = 0.9487 | 2.21
x2 = 0.008492, x3 = 0.9402 | 2.29
x2 = 0.01695, x3 = 0.9318 | 2.29
x2 = 0.02496, x3 = 0.9237 | 2.28
x2 = 0.02678, x3 = 0.9219 | 2.36
x2 = 0.03322, x3 = 0.9155 | 2.36
x2 = 0.04109, x3 = 0.9076 | 2.41

CCCCCCCCCCCC[N+](C)(C)Cc1ccccc1.[Cl-] + NCC(=O)NCC(=O)O + O
electrical conductivity [S/m], 101 kPa
Conditions | 293.15 K | 298.15 K | 303.15 K | 308.15 K | 313.15 K
x2 = 0.0008945, x1 = 0.0002797 | 0.0793 | 0.0896 | 0.0999 | 0.111 | 0.123
x2 = 0.0008945, x1 = 0.0003 | 0.0824 | 0.0938 | 0.105 | 0.117 | 0.129
x2 = 0.0008945, x1 = 0.0003225 | 0.086 | 0.0984 | 0.109 | 0.123 | 0.135
x2 = 0.0008945, x1 = 0.0003431 | 0.0893 | 0.102 | 0.115 | 0.128 | 0.14
x2 = 0.0008946, x1 = 0.0001787 | 0.0623 | 0.069 | 0.0771 | 0.086 | 0.0944
x2 = 0.0008946, x1 = 0.000206 | 0.0676 | 0.0752 | 0.0839 | 0.093 | 0.103
x2 = 0.0008946, x1 = 0.0002337 | 0.0721 | 0.081 | 0.09 | 0.0999 | 0.111
x2 = 0.0008946, x1 = 0.0002576 | 0.0759 | 0.0855 | 0.0949 | 0.106 | 0.118
x2 = 0.0008947, x1 = 6.107e-05 | 0.0231 | 0.0264 | 0.0294 | 0.0327 | 0.036
x2 = 0.0008947, x1 = 8.317e-05 | 0.0312 | 0.0352 | 0.0392 | 0.0433 | 0.0476
x2 = 0.0008947, x1 = 0.0001051 | 0.0388 | 0.0437 | 0.0485 | 0.0537 | 0.059
x2 = 0.0008947, x1 = 0.0001274 | 0.0473 | 0.0523 | 0.0589 | 0.0647 | 0.0718
x2 = 0.0008947, x1 = 0.000152 | 0.0562 | 0.0624 | 0.0692 | 0.0771 | 0.0851
x2 = 0.001798, x1 = 0.0001447 | 0.056 | 0.0627 | 0.0696 | 0.0768 | 0.0846
x2 = 0.001798, x1 = 0.0001707 | 0.063 | 0.0704 | 0.0781 | 0.0865 | 0.0956
x2 = 0.001798, x1 = 0.0001977 | 0.0685 | 0.0766 | 0.0852 | 0.0946 | 0.105
x2 = 0.001798, x1 = 0.0002221 | 0.0729 | 0.0816 | 0.091 | 0.101 | 0.113
x2 = 0.001798, x1 = 0.0002443 | 0.0767 | 0.0861 | 0.0963 | 0.107 | 0.12
x2 = 0.001798, x1 = 0.0002649 | 0.0802 | 0.0902 | 0.101 | 0.112 | 0.126
x2 = 0.001798, x1 = 0.000284 | 0.0835 | 0.094 | 0.105 | 0.118 | 0.131
x2 = 0.001798, x1 = 0.0003015 | 0.0864 | 0.0974 | 0.109 | 0.122 | 0.137
x2 = 0.001798, x1 = 0.000321 | 0.0898 | 0.101 | 0.114 | 0.127 | 0.142
x2 = 0.001799, x1 = 5.376e-05 | 0.0229 | 0.0259 | 0.029 | 0.0323 | 0.0357
x2 = 0.001799, x1 = 7.599e-05 | 0.0313 | 0.0352 | 0.0394 | 0.0437 | 0.0482
x2 = 0.001799, x1 = 9.786e-05 | 0.0395 | 0.0443 | 0.0494 | 0.0546 | 0.0601
x2 = 0.001799, x1 = 0.0001201 | 0.0476 | 0.0533 | 0.0593 | 0.0655 | 0.0721

CCCCCCCCCCCC[N+](C)(C)Cc1ccccc1.[Cl-] + NCC(=O)O + O
electrical conductivity [S/m], 101 kPa
Conditions | 293.15 K | 298.15 K | 303.15 K | 308.15 K
x2 = 0.0008873, x1 = 0.0002851 | 0.0824 | 0.0924 | 0.103 | 0.116
x2 = 0.0008873, x1 = 0.0003053 | 0.0856 | 0.0961 | 0.107 | 0.12
x2 = 0.0008873, x1 = 0.0003201 | 0.0879 | 0.0988 | 0.11 | 0.124
x2 = 0.0008874, x1 = 0.0001939 | 0.0676 | 0.0753 | 0.0835 | 0.0926
x2 = 0.0008874, x1 = 0.0002197 | 0.072 | 0.0803 | 0.0893 | 0.0992
x2 = 0.0008874, x1 = 0.0002434 | 0.0759 | 0.0848 | 0.0944 | 0.105
x2 = 0.0008874, x1 = 0.0002654 | 0.0793 | 0.0888 | 0.099 | 0.11
x2 = 0.0008875, x1 = 5.836e-05 | 0.0233 | 0.0261 | 0.0289 | 0.0319
x2 = 0.0008875, x1 = 8.059e-05 | 0.0317 | 0.0355 | 0.0393 | 0.0433
x2 = 0.0008875, x1 = 0.0001014 | 0.0394 | 0.0441 | 0.0489 | 0.0538
x2 = 0.0008875, x1 = 0.0001212 | 0.0469 | 0.0524 | 0.0581 | 0.0639
x2 = 0.0008875, x1 = 0.0001444 | 0.0552 | 0.0617 | 0.0682 | 0.0751
x2 = 0.0008875, x1 = 0.0001686 | 0.0624 | 0.0695 | 0.077 | 0.085
x2 = 0.001759, x1 = 5.744e-05 | 0.0233 | 0.026 | 0.0289 | 0.0319
x2 = 0.001759, x1 = 7.9e-05 | 0.0314 | 0.0351 | 0.039 | 0.0429
x2 = 0.001759, x1 = 9.947e-05 | 0.0391 | 0.0437 | 0.0485 | 0.0534
x2 = 0.001759, x1 = 0.0001207 | 0.0469 | 0.0525 | 0.0582 | 0.064
x2 = 0.001759, x1 = 0.0001453 | 0.0558 | 0.0624 | 0.069 | 0.0758
x2 = 0.001759, x1 = 0.0001712 | 0.0628 | 0.0701 | 0.0775 | 0.0856
x2 = 0.001759, x1 = 0.0001971 | 0.0678 | 0.0758 | 0.0841 | 0.0931
x2 = 0.001759, x1 = 0.0002216 | 0.072 | 0.0806 | 0.0896 | 0.0995
x2 = 0.001759, x1 = 0.0002442 | 0.0758 | 0.0849 | 0.0946 | 0.105
x2 = 0.001759, x1 = 0.000265 | 0.079 | 0.0888 | 0.099 | –
x2 = 0.001759, x1 = 0.000284 | 0.0821 | 0.0923 | 0.103 | –
x2 = 0.001759, x1 = 0.0003018 | 0.0849 | 0.0956 | 0.107 | –
x2 = 0.001759, x1 = 0.0003141 | 0.087 | 0.098 | 0.11 | –
